Laboratory results: US20080118436A1, “Pathological Animal Model For Non-Alcoholic Fatty Hepatitis” (priority 2004, published 2008)
Counter-ions that a name gives are not always drawn.

Assays:
[1] = test system: C57BL/6J male mice; experiment: Intraperitoneal administration of tetracycline hydrochloride for 10 days to mice fed with HFD for 8 weeks (Example 1); assay type: in vivo
From the text: (§1) In the following Examples and Comparative examples, as an animal for producing a pathologic model animal, C57BL/6J male mice (Nippon CLEA, Inc.) were used. Further, as a high-fat diet (hereinafter referred to as “HFD”), D12492 (fat content: 60 kcal%) (Research Diet Inc.) was used. As a control diet, CE-2 (Nippon CLEA, Inc.) to be used for normal rearing of mice was used. As a tetracycline antibiotic, tetracycline hydrochloride (Sigma Inc.) was used. The administration of tetracycline hydrochloride was carried out by injection of a solution of 0, 10, 30 or 100 mg/10 mL of tetracycline hydrochloride prepared with a 0.5% physiological saline solution. Here, the “solution of 0 mg/10 mL of tetracycline hydrochloride” means a 0.5% physiological saline solution.
29 mice (6 weeks of age) were divided into a group of 15 mice fed with HFD (hereinafter referred to as an “HFD group”) and a group of 14 mice fed with a control diet (hereinafter referred to as a “control group”). The following experiments related to the HFD group (15 mice) and the control group (14 mice) were assigned to Example 1 and Comparative example 1, respectively.
Feeding of HFD or control diet and intraperitoneal administration of tetracycline hydrochloride First, the mice in the HFD group and the control group were fed ad libitum with HFD and the control diet for 8 weeks, respectively. Then, the mice in the HFD group and the control group were divided into 3 groups, respectively, in such a manner that the body weight and the body fat percentage were equal in the respective groups, thereby to form 3 groups in the HFD group (5 mice×3 groups), and 3 groups in the control group (5 mice×2 groups and 4 mice×1 group). Then, tetracycline hydrochloride was intraperitoneally administered to both the HFD group and the control group at a dose of 0, 10 and 30 mg/kg/day for 10 days (hereinafter, the groups administered with tetracycline hydrochloride at a dose of 0, 10 and 30 mg/kg/day are referred to as “TC 0 group”, “TC 10 group” and “TC 30 group”, respectively). The mice were fed ad libitum with HFD or the control diet also during the period of administering tetracycline hydrochloride.
The body weight of mice was measured on 4 days before initiation of administration of tetracycline hydrochloride and on day 1, 3, 5, 7, 10 and 11 after initiation of administration thereof. FIG. 1 is a line graph showing the change in the body weight of mice intraperitoneally administered with tetracycline hydrochloride for 10 days after feeding them with HFD or the control diet for 8 weeks. […] Incidentally, in FIG. 1, the term “days” represents the number of days elapsed after initiation of administration of tetracycline hydrochloride.
On the next day after completion of administration of tetracycline hydrochloride (on day 11 after initiation of administration), the mice were anesthetized by isoflurane inhalation. After it was Confirmed that the mice lost pain sensation by pinching the tail with forceps, the mice underwent laparotomy and the blood was collected from the abdominal vena cava with a syringe containing heparin. The collected blood was centrifuged at 4° C. for 10 minutes at 7500 rpm thereby to separate plasma. The obtained plasma was cryopreserved. […]
By using the cryopreserved plasma, the plasma ALT level, plasma AST level and plasma glucose level were measured using Hitachi autoanalyzer 7070 (Hitachi Hi Technologies), and the plasma insulin level was measured using an insulin assay kit (Seikagaku Corporation). […]

[2] = test system: C57BL/6J male mice; experiment: Subcutaneous administration of tetracycline hydrochloride for 10 days to mice fed with HFD for 8 weeks (Example 2); assay type: in vivo; settings: for histopathological test of liver: mouse, in vivo, sc
From the text: as §1
20 mice (7 weeks of age) were fed ad libitum with HFD for 8 weeks. Then, the mice were divided into 4 groups (5 mice×4 groups) in such a manner that the body weight and the body fat percentage were equal in the respective groups, and subcutaneously administered with tetracycline hydrochloride at a dose of 0, 30, 60 and 100 mg/kg/day for 10 days (hereinafter, the groups administered with tetracycline hydrochloride at a dose of 0, 30, 60 and 100 mg/kg/day are referred to as “TC 0 group”, “TC 30 group”, “TC 60 group” and “TC 100 group”, respectively). The mice were fed ad libitum with HFD also during the period of administering tetracycline hydrochloride.
The body weight of mice was measured on 3 days before initiation of administration of tetracycline hydrochloride and everyday from the next day until day 11 after initiation of administration thereof. FIG. 12 is a line graph showing the change in the body weight of mice subcutaneously administered with tetracycline hydrochloride for 10 days after feeding them with HFD for 8 weeks. […] Incidentally, in FIG. 12, the term “days” represents the number of days elapsed after initiation of administration of tetracycline hydrochloride.
Blood collection and dissection were carried out in the same manner as in Example 1.
The plasma ALT level, plasma AST level, plasma insulin level and plasma glucose level were measured in the same manner as in Example 1. FIG. 13 is a bar graph showing the plasma ALT level in mice subcutaneously administered with tetracycline hydrochloride for 10 days after feeding them with HFD for 8 weeks. FIG. 14 is a bar graph showing the plasma AST level in mice subcutaneously administered with tetracycline hydrochloride for 10 days after feeding them with HFD for 8 weeks. […] FIG. 15 is a bar graph showing the plasma insulin level in mice subcutaneously administered with tetracycline hydrochloride for 10 days after feeding them with HFD for 8 weeks. […] FIG. 16 is a bar graph showing the plasma glucose level in mice subcutaneously administered with tetracycline hydrochloride for 10 days after feeding them with HFD for 8 weeks.
The hepatic TG level was measured in the same manner as in Example 1. FIG. 17 is a bar graph showing the hepatic TG level in mice subcutaneously administered with tetracycline hydrochloride for 10 days after feeding them with HFD for 8 weeks.
Measurement of Hepatic TNF-α mRNA level and hepatic IL-1β mRNA level The hepatic TNF-α mRNA level and hepatic IL-1β mRNA level were measured in the same manner as in Example 1. FIG. 18 is a bar graph showing the hepatic TNF-α mRNA level in mice subcutaneously administered with tetracycline hydrochloride for 10 days after feeding them with HFD for 8 weeks. FIG. 19 is a bar graph showing the hepatic IL-1β mRNA level in mice subcutaneously administered with tetracycline hydrochloride for 10 days after feeding them with HFD for 8 weeks.
A histopathological test of liver was carried out in the same manner as in Example 1.

[3] = HFD 8 weeks, i.p. 30 mg/kg/day for 10 days, vs normal mice
[4] = HFD group (i.p. 0, 10, 30 mg/kg/day for 10 days), vs normal mice
[5] = HFD 8 weeks, s.c. 30 mg/kg/day for 10 days, vs normal mice
[6] = HFD 8 weeks, s.c. 60 mg/kg/day for 10 days, vs normal mice
[7] = HFD 8 weeks, s.c. 100 mg/kg/day for 10 days, vs normal mice

CN(C)[C@@H]1C(O)=C(C(N)=O)C(=O)[C@@]2(O)C(O)=C3C(=O)c4c(O)cccc4[C@@](C)(O)[C@H]3C[C@@H]12 [tetracycline hydrochloride]
plasma ALT level [1, 3]: significantly higher
plasma AST level [1, 3]: significantly higher
plasma glucose level [1, 4]: equivalent to or higher
plasma insulin level [1, 4]: equivalent to or higher
histopathological test of liver ([1]; mouse, in vivo, ip, 30 mg/kg/day): presence of fatty liver and the invasion of inflammatory cells were observed
plasma ALT level [2, 5]: significantly higher
plasma AST level [2, 5]: significantly higher
plasma insulin level [2, 5]: higher
plasma ALT level [2, 6]: significantly higher
plasma AST level [2, 6]: significantly higher
plasma insulin level [2, 6]: higher
plasma ALT level [2, 7]: significantly higher
plasma AST level [2, 7]: significantly higher
plasma insulin level [2, 7]: equivalent
plasma glucose level ([2]; HFD 8 weeks, s.c. any group (0, 30, 60, 100 mg/kg/day) for 10 days, vs normal mice): higher
histopathological test of liver ([2]; 30 mg/kg/day): presence of fatty liver and the invasion of inflammatory cells were observed
histopathological test of liver ([2]; 60 mg/kg/day): presence of fatty liver and the invasion of inflammatory cells were observed
histopathological test of liver ([2]; 100 mg/kg/day): presence of fatty liver and the invasion of inflammatory cells were observed
